According to article PMC3220277 (2011):
Read-outs that look alike come from different tables or passages of the source.

Key:
Format in all cases: binding
[1] = target: T1, C3R/C86S S100A4 (Homo sapiens, UniProt P26447, C3R/C86S); experiment: competitive fluorescence anisotropy against FITC-MIIA
[2] = target: T2, S100A4 (Homo sapiens, UniProt P26447); experiment: LC-ESI MS of covalent adducts
[3] = target: T1, C3R/C86S S100A4; experiment: competitive fluorescence anisotropy against FITC-MIIA; remark: listed apart in the source
[4] = target: T2, S100A4; experiment: as above

T2 sequence (P26447 2-101): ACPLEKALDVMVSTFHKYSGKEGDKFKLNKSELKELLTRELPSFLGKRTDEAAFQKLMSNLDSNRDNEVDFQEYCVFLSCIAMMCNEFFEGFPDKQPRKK
T1 sequence (P26447 2-101 C3R/C86S, one chain of several): as the sequence (P26447 2-101) above, with C2R, C85S counted along it

Row | IC50 [1] | IC50 [2] | IC50 [3] | IC50 [4] | SMILES
1 | 5.7 ± 0.5 µM | 1800 ± 600 nM | – | – | O=C1C(SCCO)=C(SCCO)C(=O)c2ccccc21 [NSC 95397, 2,3-bis[2-hydroxyethylsulfanyl]-1,4-naphthoquinone]
2 | – | – | 5.3 ± 0.6 µM | 2700 ± 700 nM | CC1=C(SCCO)C(=O)c2ccccc2C1=O [NSC 672121, 2-(2-hydroxyethylsulfanyl)-3-methylnaphthalene-1,4-dione]
